# Data published in patent US20100121108A1, “PROCESS FOR SYNTHESIZING DESVENLAFAXINE FREE BASE AND SALTS OR SOLVATES THEREOF” (MEDICHEM, S.A., priority 2006, published 2010).
# Columns and labels:
# [1] = Particle size by Malvern Mastersizer S (volume distribution); format: physicochemical
# Protocol: The particle size for desvenlafaxine succinate was measured using a Malvern Mastersizer S particle size analyzer with an MS1 Small Volume Sample Dispersion Unit stirred cell. A 300RF mm lens and a beam length of 2.4 mm were used. Samples for analysis were prepared by dispersing a weighed amount of desvenlafaxine succinate (approximately 0.1 g) in 20 mL of Lecithin Solution, previously prepared by dilution of 1.5 g of Soybean Lecithin to 200 mL of Isopar G. Mix gently until Lecithin dissolves (Lecithin solution). If it is necessary the solution can be sonicated. The suspension was delivered drop-wise to a background corrected measuring cell previously filled with dispersant (Isopar G) until the obscuration reached the desired level. Volume distributions were obtained for three times. Before and after the analysis, purge the sample and flush the MS1 unit with ethanol twice and with the dispersant at least three times. For characterization, the values of D10, D50 and D90 (by volume) were specifically listed, each one being the mean of the […] values available for each characterization parameter.
# [2] = BET specific surface area (Micromeritics ASAP2010, N2 adsorption); format: physicochemical; details: N2 at 77.3 K
# Protocol: The BET (Brunauer, Emmett and Teller) specific surface area for desvenlafaxine succinate was measured using a Micromeritics ASAP2010 equipment. Samples for analysis were degassed at 30° C.-70° C. under vacuum for about two hours. The determination of the adsorption of N2 at 77.3° K was measured for relative pressures in the range of 0.05-0.3 for a weighed amount of desvenlafaxine succinate (i.e., approximately 0.5 g).
# [3] = milled and sieved desvenlafaxine succinate
smiles,measurement,setting,value
CN(C)CC(c1ccc(O)cc1)C1(O)CCCCC1 (centres unmarked) [desvenlafaxine succinate],D50 (v) particle size,[1]; [3],approximately 41 μm
same,D90 (v) particle size,[1]; [3],approximately 155 μm
same,D10 (v) particle diameter less than,[1]; summary statement,approximately 4 μM
same,surface area,[2],0.8457±0.0039 m^2/g
same,surface area,[2]; listed as Desvenlafaxine succinate,approximately 0.8457±0.0039 m^2/g
